Experimental data from the supplement of paper PMC13207355.
Structures can show the parent of a compound that is named as a salt.

What was measured:
Details in all cases: exposure time: 72 h
E57 [1] = patient-derived glioblastoma stem cells of mesenchymal subtype; assay: surviving fraction (nuclei count normalised to DMSO); higher = more cells surviving (less toxic)
E28 [2] = patient-derived glioblastoma stem cells of classical subtype; assay: as above
E31 [3] = patient-derived glioblastoma stem cells of proneural subtype; assay: as above
E34 [4] = patient-derived glioblastoma stem cells of proneural subtype; assay: as above
E21 [5] = patient-derived glioblastoma stem cells of mesenchymal subtype; assay: as above
FT3469 [6] = normal neural stem cell line; assay: as above
E13 [7] = patient-derived glioblastoma stem cells of classical subtype; assay: as above
E57 [8] = assay: phenotypic distance (Euclidean, principal components) from DMSO controls (arbitrary units); higher = stronger morphological change
E28 [9] = assay: as above
E31 [10] = assay: as above
E34 [11] = assay: as above
E21 [12] = assay: as above
FT3469 [13] = assay: as above
E13 [14] = assay: as above
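For phenotypic distance (Euclidean, principal components) from DMSO controls in this document: cell Painting imaging in 384-well plates, CellProfiler features reduced to at least 20 principal components, Euclidean distance versus same-plate DMSO vehicle wells (0.1% v/v), median over six images per well.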
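For surviving fraction (nuclei count normalised to DMSO) in this document: nuclei counted by high-content imaging of Hoechst-stained cells in laminin-coated 384-well plates, relative to 0.1% DMSO vehicle wells, with staurosporine as cell-death control.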

COc1cccc2c1C(=O)c1c(O)c3c(c(O)c1C2=O)C[C@@](O)(C(C)=O)C[C@@H]3O[C@H]1C[C@H](N)[C@H](O)[C@H](C)O1 [Daunorubicin hydrochloride]
Details	phenotypic distance	surviving fraction
E13 [7], 4.1 nM	–	0.54
E13 [7], 12.3 nM	–	0.512
E13 [7], 37 nM	–	0.342
E13 [7], 111.1 nM	–	0.381
E13 [7], 333.3 nM	–	0.216
E13 [7], 1000 nM	–	0.0373
E13 [7], 3000 nM	–	0.0142
E13 [14], 4.1 nM	3.33	–
E13 [14], 12.3 nM	4.36	–
E13 [14], 37 nM	6.02	–
E13 [14], 111.1 nM	5.64	–
E13 [14], 333.3 nM	5.87	–
E13 [14], 1000 nM	7.81	–
E13 [14], 3000 nM	5.88	–
E21 [5], 4.1 nM	–	0.844
E21 [5], 12.3 nM	–	0.597
E21 [5], 37 nM	–	0.451
E21 [5], 111.1 nM	–	0.343
E21 [5], 333.3 nM	–	0.151
E21 [5], 1000 nM	–	0.0632
E21 [5], 3000 nM	–	0.055
E21 [12], 4.1 nM	1.95	–
E21 [12], 12.3 nM	4.33	–
E21 [12], 37 nM	6.78	–
E21 [12], 111.1 nM	5.96	–
E21 [12], 333.3 nM	5.7	–
E21 [12], 1000 nM	6.37	–
E21 [12], 3000 nM	6.06	–
E28 [2], 4.1 nM	–	0.408
E28 [2], 12.3 nM	–	0.419
E28 [2], 37 nM	–	0.339
E28 [2], 111.1 nM	–	0.251
E28 [2], 333.3 nM	–	0.185
E28 [2], 1000 nM	–	0.187
E28 [2], 3000 nM	–	0.11
E28 [9], 4.1 nM	1.76	–
E28 [9], 12.3 nM	2.56	–
E28 [9], 37 nM	2.56	–
E28 [9], 111.1 nM	3.09	–
E28 [9], 333.3 nM	3.78	–
E28 [9], 1000 nM	3.13	–
E28 [9], 3000 nM	5.54	–
E31 [3], 4.1 nM	–	0.51
E31 [3], 12.3 nM	–	0.293
E31 [3], 37 nM	–	0.266
E31 [3], 111.1 nM	–	0.134
E31 [3], 333.3 nM	–	0.0818
E31 [3], 1000 nM	–	0.0315
E31 [3], 3000 nM	–	0.0944
E31 [10], 4.1 nM	2.77	–
E31 [10], 12.3 nM	2.46	–
E31 [10], 37 nM	2.46	–
E31 [10], 111.1 nM	4.45	–
E31 [10], 333.3 nM	4.56	–
E31 [10], 1000 nM	7.33	–
E31 [10], 3000 nM	5.46	–
E34 [4], 4.1 nM	–	0.644
E34 [4], 12.3 nM	–	0.611
E34 [4], 37 nM	–	0.591
E34 [4], 111.1 nM	–	0.445
E34 [4], 333.3 nM	–	0.471
E34 [4], 1000 nM	–	0.259
E34 [4], 3000 nM	–	0.0925
E34 [11], 4.1 nM	1.67	–
E34 [11], 12.3 nM	4.29	–
E34 [11], 37 nM	4.68	–
E34 [11], 111.1 nM	3.18	–
E34 [11], 333.3 nM	2.84	–
E34 [11], 1000 nM	4.23	–
E34 [11], 3000 nM	3.57	–
E57 [1], 4.1 nM	–	0.583
E57 [1], 12.3 nM	–	0.325
E57 [1], 37 nM	–	0.194
E57 [1], 111.1 nM	–	0.178
E57 [1], 333.3 nM	–	0.149
E57 [1], 1000 nM	–	0.0932
E57 [1], 3000 nM	–	0.0598
E57 [8], 4.1 nM	3.27	–
E57 [8], 12.3 nM	6.2	–
E57 [8], 37 nM	9.2	–
E57 [8], 111.1 nM	7.86	–
E57 [8], 333.3 nM	6.42	–
E57 [8], 1000 nM	6.83	–
E57 [8], 3000 nM	7.19	–
FT3469 [6], 4.1 nM	–	0.644
FT3469 [6], 12.3 nM	–	0.625
FT3469 [6], 37 nM	–	0.487
FT3469 [6], 111.1 nM	–	0.606
FT3469 [6], 333.3 nM	–	0.593
FT3469 [6], 1000 nM	–	0.0798
FT3469 [6], 3000 nM	–	0.0266
FT3469 [13], 4.1 nM	1.72	–
FT3469 [13], 12.3 nM	1.77	–
FT3469 [13], 37 nM	2.11	–
FT3469 [13], 111.1 nM	2.17	–
FT3469 [13], 333.3 nM	2.57	–
FT3469 [13], 1000 nM	4.08	–
FT3469 [13], 3000 nM	7.48	–

CC(C)C[C@H](NC(=O)[C@H](CCc1ccccc1)NC(=O)CN1CCOCC1)C(=O)N[C@@H](Cc1ccccc1)C(=O)N[C@@H](CC(C)C)C(=O)[C@@]1(C)CO1 [Carfilzomib]
Details	phenotypic distance	surviving fraction
E13 [7], 4.1 nM	–	0.0693
E13 [7], 12.3 nM	–	0.000925
E13 [7], 37 nM	–	0.00185
E13 [7], 111.1 nM	–	0.0037
E13 [7], 333.3 nM	–	0.00277
E13 [7], 1000 nM	–	0
E13 [7], 3000 nM	–	0
E13 [14], 4.1 nM	7.83	–
E13 [14], 12.3 nM	12.9	–
E13 [14], 37 nM	15.6	–
E13 [14], 111.1 nM	16.7	–
E13 [14], 333.3 nM	13.2	–
E13 [14], 1000 nM	18.4	–
E13 [14], 3000 nM	20.8	–
E21 [5], 4.1 nM	–	0.281
E21 [5], 12.3 nM	–	0.00694
E21 [5], 37 nM	–	0.00198
E21 [5], 111.1 nM	–	0.000991
E21 [5], 333.3 nM	–	0
E21 [5], 1000 nM	–	0.00297
E21 [5], 3000 nM	–	0.000991
E21 [12], 4.1 nM	6.32	–
E21 [12], 12.3 nM	12.1	–
E21 [12], 37 nM	18.5	–
E21 [12], 111.1 nM	17.9	–
E21 [12], 333.3 nM	24	–
E21 [12], 1000 nM	18.7	–
E21 [12], 3000 nM	17.1	–
E28 [2], 4.1 nM	–	0.177
E28 [2], 12.3 nM	–	0.0576
E28 [2], 37 nM	–	0.0811
E28 [2], 111.1 nM	–	0.0683
E28 [2], 333.3 nM	–	0.109
E28 [2], 1000 nM	–	0.0768
E28 [2], 3000 nM	–	0.16
E28 [9], 4.1 nM	3.34	–
E28 [9], 12.3 nM	5.12	–
E28 [9], 37 nM	6.26	–
E28 [9], 111.1 nM	5.31	–
E28 [9], 333.3 nM	5.36	–
E28 [9], 1000 nM	5.52	–
E28 [9], 3000 nM	5.18	–
E31 [3], 4.1 nM	–	0.0683
E31 [3], 12.3 nM	–	0.00163
E31 [3], 37 nM	–	0.00651
E31 [3], 111.1 nM	–	0.00163
E31 [3], 333.3 nM	–	0.00814
E31 [3], 1000 nM	–	0.013
E31 [3], 3000 nM	–	0.0195
E31 [10], 4.1 nM	8.54	–
E31 [10], 12.3 nM	12.7	–
E31 [10], 37 nM	11.3	–
E31 [10], 111.1 nM	12.1	–
E31 [10], 333.3 nM	9.53	–
E31 [10], 1000 nM	9.35	–
E31 [10], 3000 nM	8.45	–
E34 [4], 4.1 nM	–	0.262
E34 [4], 12.3 nM	–	0.0542
E34 [4], 37 nM	–	0.035
E34 [4], 111.1 nM	–	0.0297
E34 [4], 333.3 nM	–	0.042
E34 [4], 1000 nM	–	0.035
E34 [4], 3000 nM	–	0.0455
E34 [11], 4.1 nM	5.47	–
E34 [11], 12.3 nM	11.7	–
E34 [11], 37 nM	12.5	–
E34 [11], 111.1 nM	13.8	–
E34 [11], 333.3 nM	15.8	–
E34 [11], 1000 nM	14.1	–
E34 [11], 3000 nM	14.9	–
E57 [1], 4.1 nM	–	0.0418
E57 [1], 12.3 nM	–	0.00509
E57 [1], 37 nM	–	0.00509
E57 [1], 111.1 nM	–	0.00305
E57 [1], 333.3 nM	–	0.00509
E57 [1], 1000 nM	–	0.00407
E57 [1], 3000 nM	–	0.00458
E57 [8], 4.1 nM	12.2	–
E57 [8], 12.3 nM	12.4	–
E57 [8], 37 nM	11.4	–
E57 [8], 111.1 nM	12.8	–
E57 [8], 333.3 nM	8.61	–
E57 [8], 1000 nM	14.1	–
E57 [8], 3000 nM	13.2	–
FT3469 [6], 4.1 nM	–	0.224
FT3469 [6], 12.3 nM	–	0.158
FT3469 [6], 37 nM	–	0.124
FT3469 [6], 111.1 nM	–	0.095
FT3469 [6], 333.3 nM	–	0.0806
FT3469 [6], 1000 nM	–	0.112
FT3469 [6], 3000 nM	–	0.0863
FT3469 [13], 4.1 nM	5.32	–
FT3469 [13], 12.3 nM	7.47	–
FT3469 [13], 37 nM	7.85	–
FT3469 [13], 111.1 nM	6.13	–
FT3469 [13], 333.3 nM	7.43	–
FT3469 [13], 1000 nM	6.91	–
FT3469 [13], 3000 nM	7.23	–
